Consider nine compounds from US9096591B2, “Tetracyclic compounds” (Medivation Technologies, Inc., priority 2007, dated 2015).

Structures are written as SMILES. Where two headings read alike, the source gives them in different places.

For experiment [1], the target named is T1, human recombinant histamine H1 receptor (Homo sapiens, UniProt P35367).
T1 construct: expressed in transfected cells; host or cells: CHO cells
As to the kind of experiment: Histamine H1 radioligand binding ([3H]Pyrilamine). The note with it: for inhibition at 0.01 µM: 10 nM (0.01 μM) compound; for inhibition at 0.1 µM: 0.1 μM compound. The method, boiled down: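 Receptor expressed in CHO cells, assayed in 50 mM Tris-HCl pH 7.4 with 2 mM MgCl2, 100 mM NaCl, 250 mM sucrose. Compounds tested at 1 μM in 1% DMSO; non-specific binding set with 1 μM pyrilamine. Filter-bound radioactivity counted; values are percent inhibition of specific binding.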

Experiment [2] has as its target T2, human recombinant adrenergic α2A receptor (Homo sapiens, UniProt P08913).
T2 construct: expressed in transfected cells; host or cells: insect Sf9 cells
T2 sequence (P08913 1-465): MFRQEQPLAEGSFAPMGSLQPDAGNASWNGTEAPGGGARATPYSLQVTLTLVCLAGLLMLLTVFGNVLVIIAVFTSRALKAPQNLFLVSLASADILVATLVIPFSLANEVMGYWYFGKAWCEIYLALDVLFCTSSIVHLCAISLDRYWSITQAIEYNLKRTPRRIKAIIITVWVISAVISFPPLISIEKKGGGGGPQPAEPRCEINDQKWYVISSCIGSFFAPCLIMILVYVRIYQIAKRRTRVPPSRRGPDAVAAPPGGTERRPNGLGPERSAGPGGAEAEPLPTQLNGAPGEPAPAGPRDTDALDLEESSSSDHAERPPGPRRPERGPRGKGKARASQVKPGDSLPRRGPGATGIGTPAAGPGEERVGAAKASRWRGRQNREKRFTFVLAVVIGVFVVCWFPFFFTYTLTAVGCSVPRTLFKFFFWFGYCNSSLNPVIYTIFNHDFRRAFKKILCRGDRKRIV
Nature of the experiment: Adrenergic α2A radioligand binding ([3H]MK-912). Set-up: Inhibition of ligand binding, Adren. alpha2A: concentration or dose not given beside the values. The note with it: for Inhibition of ligand binding, Adren. alpha2A: percent inhibition of specific binding; for inhibition at 1 µM: compounds screened at 1 μM, read-out: Inhibition of ligand binding, Adren. alpha2A (percent inhibition of specific binding). The method in brief:
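Membranes from Sf9 cells expressing the receptor were incubated with 1 nM [3H]MK-912 for 60 minutes at 25° C in 50 mM Tris-HCl pH 7.4, 12.5 mM MgCl2, 2 mM EDTA. 10 μM WB-4101 defined non-specific binding. Values are percent inhibition of specific bound radioactivity after filtration.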

Experiment [3] has as its target T3, Serotonin (5-Hydroxytryptamine) 5-HT7 (Homo sapiens, UniProt P34969).
T3 construct: expressed in transfected cells; host or cells: CHO cells
As to the kind of experiment: Serotonin 5-HT7 radioligand binding ([3H]LSD). Set-up: Inhibition of ligand binding, Ser. 5-HT7: concentration or dose not given beside the values. The note with it: for Inhibition of ligand binding, Ser. 5-HT7: percent inhibition of specific binding; for inhibition at 1 µM: compounds screened at 1 μM, read-out: Inhibition of ligand binding, Ser. 5-HT7 (percent inhibition of specific binding). How it is done:
Lysergic acid diethylamide (LSD) for 2 hours at 25° C. […] Receptor proteins were filtered and washed, the filters were then counted to determine [^3H]LSD specifically bound. […] Biochemical assay results are presented as the percent inhibition of specific binding in Table 6.

The target of experiment [4] is T4, human recombinant serotonin (5-Hydroxytryptamine) 5-HT6 receptor (Homo sapiens, UniProt P50406).
T4 construct: expressed in transfected cells; host or cells: human HeLa cells
T4 sequence (P50406 whole entry): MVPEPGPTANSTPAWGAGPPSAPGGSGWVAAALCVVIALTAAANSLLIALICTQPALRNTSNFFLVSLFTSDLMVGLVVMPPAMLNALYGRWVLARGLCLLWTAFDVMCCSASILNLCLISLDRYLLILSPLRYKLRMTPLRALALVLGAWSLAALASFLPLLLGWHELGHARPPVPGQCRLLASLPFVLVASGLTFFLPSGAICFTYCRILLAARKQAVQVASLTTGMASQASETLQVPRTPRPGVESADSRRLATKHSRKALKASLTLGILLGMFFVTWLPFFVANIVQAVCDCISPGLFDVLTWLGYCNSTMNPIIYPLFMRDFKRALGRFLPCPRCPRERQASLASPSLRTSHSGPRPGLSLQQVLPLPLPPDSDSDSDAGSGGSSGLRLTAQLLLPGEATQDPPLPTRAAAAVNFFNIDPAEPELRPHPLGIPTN
As to the kind of experiment: Serotonin 5-HT6 radioligand binding ([3H]LSD). Set-up: Inhibition of ligand binding, Ser. 5-HT6: concentration or dose not given beside the values. The note with it: for Inhibition of ligand binding, Ser. 5-HT6: percent inhibition of specific binding; for inhibition at 1 µM: compounds screened at 1 μM, read-out: Inhibition of ligand binding, Ser. 5-HT6 (percent inhibition of specific binding). The source says:
Receptor proteins were filtered and washed, the filters were then counted to determine [3H]LSD specifically bound. […] Biochemical assay results are presented as the percent inhibition of specific binding in Table 6.

Setting [5] is: 1 μM compound, […] [3H]Pyrilamine, read-out: Histamine Binding H1, percent inhibition of specific binding.
The mark [6] stands for this setting: percent inhibition of specific binding, screened at 1 μM, read-out: Inhibition of ligand binding, Hist. H1.
[7] abbreviates: […] [3H]Pyrilamine, read-out: Histamine Binding H1, percent inhibition of specific binding.
Where [8] appears, read: compounds screened at 1 μM, read-out: Inhibition of ligand binding, Hist. H1 (percent inhibition of specific binding).

T3 sequence (P34969 whole entry): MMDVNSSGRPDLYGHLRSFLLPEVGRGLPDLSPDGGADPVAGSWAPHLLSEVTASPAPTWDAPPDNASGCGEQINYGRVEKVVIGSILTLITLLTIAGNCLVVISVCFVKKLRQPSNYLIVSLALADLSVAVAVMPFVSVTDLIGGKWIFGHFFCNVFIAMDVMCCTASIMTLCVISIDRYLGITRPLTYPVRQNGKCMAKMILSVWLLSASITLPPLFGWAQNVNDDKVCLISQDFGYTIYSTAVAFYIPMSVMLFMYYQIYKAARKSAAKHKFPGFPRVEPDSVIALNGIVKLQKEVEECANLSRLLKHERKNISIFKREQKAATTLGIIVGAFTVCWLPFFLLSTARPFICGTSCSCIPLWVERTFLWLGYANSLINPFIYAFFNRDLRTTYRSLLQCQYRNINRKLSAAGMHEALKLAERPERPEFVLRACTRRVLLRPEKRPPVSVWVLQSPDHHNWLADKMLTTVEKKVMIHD
T1 sequence (P35367 whole entry): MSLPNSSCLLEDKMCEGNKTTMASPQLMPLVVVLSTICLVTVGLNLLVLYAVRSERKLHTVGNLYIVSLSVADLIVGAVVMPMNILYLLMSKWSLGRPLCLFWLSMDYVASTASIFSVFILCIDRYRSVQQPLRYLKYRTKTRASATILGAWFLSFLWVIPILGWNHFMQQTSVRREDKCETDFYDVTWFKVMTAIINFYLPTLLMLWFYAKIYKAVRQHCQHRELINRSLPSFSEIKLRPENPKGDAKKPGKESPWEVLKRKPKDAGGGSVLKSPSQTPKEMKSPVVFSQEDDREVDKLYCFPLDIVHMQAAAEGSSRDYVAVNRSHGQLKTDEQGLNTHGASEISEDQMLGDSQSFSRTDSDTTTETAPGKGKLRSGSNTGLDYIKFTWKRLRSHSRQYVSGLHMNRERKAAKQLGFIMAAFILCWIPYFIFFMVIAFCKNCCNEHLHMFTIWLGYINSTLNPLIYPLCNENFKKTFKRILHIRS

With `Cc1ccc(Cn2c3c(c4ccccc42)CN(C)CC3)cn1` [Compound 17, 2,3,4,5-tetrahydro-2-methyl-5-((6-methylpyridin-3-yl)methyl)-1H-pyrido[4,3-b]indole], the inhibition at 1 µM in experiment [1] (setting [5]) and in experiment [1] (setting [6]) was 15% each time. In addition, the “Inhibition of ligand binding, Adren. alpha2A” value (“Inhibition … Adren. alpha2A” below) in experiment [2] is reported as 56%. Besides, the “Inhibition of ligand binding, Ser. 5-HT7” value in experiment [3] is listed as 7%. The “Inhibition of ligand binding, Ser. 5-HT6” value in experiment [4] turned out to be 0%.

As to `CN1CCc2c(c3cc(Cl)ccc3n2CCc2ccccc2)C1` [Compound 36, 8-chloro-2,3,4,5-tetrahydro-2-methyl-5-phenethyl-1H-pyrido[4,3-b]indole], in experiment [1] (setting [7]), the inhibition – broadly, the drop in the measured response relative to a control, in per cent – at 0.01 µM was 48%. The inhibition at 0.1 µM in experiment [1] (setting [7]) came out at 91%. Further, the inhibition at 1 µM in experiment [1] (setting [5]) and in experiment [1] (setting [6]) was 99% in each case. In addition, the “Inhibition … Adren. alpha2A” value in experiment [2] was 97%. Also, the “Inhibition of ligand binding, Ser. 5-HT7” value in experiment [3] turned out to be 99%. For the same compound, the “Inhibition of ligand binding, Ser. 5-HT6” value in experiment [4] is recorded as 104%.

With `CCN1CCc2c(c3cc(C)ccc3n2Cc2ccccc2)C1` [Compound 140, 5-benzyl-2-ethyl-2,3,4,5-tetrahydro-8-methyl-1H-pyrido[4,3-b]indole], the inhibition at 1 µM in experiment [1] (setting [5]) and in experiment [1] (setting [6]) was 15% throughout. Besides, in experiment [2], the “Inhibition … Adren. alpha2A” value was 17%. In addition, the “Inhibition of ligand binding, Ser. 5-HT7” value in experiment [3] is recorded as 2%. Further, the “Inhibition of ligand binding, Ser. 5-HT6” value in experiment [4] turned out to be 8%.

Turning to `COc1ccc2c(c1)c1c(n2CCc2nc(-c3ccccc3)cs2)CCN(C)C1` [Compound C1-6], the inhibition at 1 µM in experiment [1] (setting [8]) turned out to be 104%; in experiment [2], 55%; in experiment [3], 57%; in experiment [4], 84%.

`CN1CCc2c(c3ccccc3n2CCc2noc(-c3ccccc3)n2)C1` [Compound C4-1]: the inhibition at 1 µM is 93% in experiment [1] (setting [8]), 95% in experiment [2], 88% in experiment [3] and 51% in experiment [4].

Turning to `Cc1ccc2c(c1)c1c(n2CCc2ccc(C)nc2)CC[N+](C)([O-])C1` (stereo not drawn) [Example 93, 2,8-dimethyl-5-(2-(6-methylpyridin-3-yl)ethyl)-2,3,4,5-tetrahydro-1H-pyrido[4,3-b]indole 2-oxide], in experiment [1] (inhibition profile), the “Hist. H1” value is reported as 68. In addition, the “Adren. alpha2A” value in experiment [2] (inhibition profile) was 1. Also, in experiment [3] (inhibition profile), the “Ser. 5-HT7” value stood at 35. The “Ser. 5-HT6” value in experiment [4] (inhibition profile) came to 11.

With `Cc1ccc(CCn2c3c(c4ccccc42)CN(C)CC3)cc1` [Compound 1, 2,3,4,5-tetrahydro-2-methyl-5-(4-methylphenethyl)-1H-pyrido[4,3-b]indole], the inhibition at 0.03 µM in experiment [1] (0.03 μM compound, […] [3H]Pyrilamine, read-out: Histamine Binding H1, percent inhibition of specific binding) was 32%. Besides, the inhibition at 0.1 µM in experiment [1] (setting [7]) amounted to 56%. Further, the inhibition at 1 µM in experiment [1] (setting [5]) and in experiment [1] (setting [6]) was 91% each time. The “Inhibition … Adren. alpha2A” value in experiment [2] came out at 99%. The “Inhibition of ligand binding, Ser. 5-HT7” value in experiment [3] worked out at 98%. The “Inhibition of ligand binding, Ser. 5-HT6” value in experiment [4] is 87%.

As to `CCN1CCc2c(c3ccccc3n2Cc2ccccc2)C1` [Compound 16, 5-benzyl-2-ethyl-2,3,4,5-tetrahydro-1H-pyrido[4,3-b]indole], the inhibition at 1 µM in experiment [1] (setting [5]) and in experiment [1] (setting [6]) was 10% in each case. In addition, the “Inhibition … Adren. alpha2A” value in experiment [2] turned out to be 10%. For the same compound, the “Inhibition of ligand binding, Ser. 5-HT7” value in experiment [3] turned out to be 14%. In addition, the “Inhibition of ligand binding, Ser. 5-HT6” value in experiment [4] came to 6%.

Turning to `Cc1ccc2c(c1)c1c(n2CCc2ccccc2F)CCN(C)C1` [Compound 34, 5-(2-fluorophenethyl)-2,3,4,5-tetrahydro-2,8-dimethyl-1H-pyrido[4,3-b]indole], in experiment [1] (setting [7]), the inhibition at 0.01 µM was 22% and the inhibition at 0.1 µM is 67%. Moreover, the inhibition at 1 µM in experiment [1] (setting [5]) came out at 96%. The inhibition at 1 µM in experiment [1] (setting [6]) was 96%. Besides, the “Inhibition … Adren. alpha2A” value in experiment [2] was 99%. For the same compound, the “Inhibition of ligand binding, Ser. 5-HT7” value in experiment [3] is recorded as 97%. Besides, the “Inhibition of ligand binding, Ser. 5-HT6” value in experiment [4] was 104%.
